The experiment has as its target T1, TMABADH.1S (Neurospora crassa, UniProt Q7RYT1).
T1 construct: gene NCU00378; 495 AA short annotation of NCU00378; codon-harmonized synthetic gene in pECXT99A, E. coli DH5alpha crude extract
T1 sequence (Q7RYT1 52-546): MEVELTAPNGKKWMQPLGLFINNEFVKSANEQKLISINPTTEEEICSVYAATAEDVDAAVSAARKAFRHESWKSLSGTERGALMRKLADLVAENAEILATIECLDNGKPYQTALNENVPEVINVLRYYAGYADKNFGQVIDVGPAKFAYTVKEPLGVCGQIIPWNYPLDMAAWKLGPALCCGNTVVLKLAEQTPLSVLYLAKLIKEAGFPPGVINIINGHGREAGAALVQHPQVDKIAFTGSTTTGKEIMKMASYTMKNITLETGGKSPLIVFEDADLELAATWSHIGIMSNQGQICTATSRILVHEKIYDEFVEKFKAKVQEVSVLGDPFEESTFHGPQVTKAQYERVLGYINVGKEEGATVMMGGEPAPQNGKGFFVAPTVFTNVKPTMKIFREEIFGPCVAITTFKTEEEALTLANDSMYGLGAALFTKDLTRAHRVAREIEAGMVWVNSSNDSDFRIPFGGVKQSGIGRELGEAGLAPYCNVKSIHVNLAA
As to the kind of experiment: NADH formation at […] nm, E. coli crude extract. It counts as biochemical. The note with it: 2 mM NAD+, 0.4 mM TMABA iodide, glycine-NaOH pH 9.5, 30 °C.

Regarding `NC(=O)c1ccc[n+]([C@@H]2O[C@H](COP(=O)(O)OP(=O)(O)OC[C@H]3O[C@@H](n4cnc5c(N)ncnc54)[C@H](O)[C@@H]3O)[C@@H](O)[C@H]2O)c1` [NAD^+], the “NADH formation at 340 nm, E. coli crude extract” value is given as “co-conversion of NAD^+ to NADH in the TMABADH reaction”.
